Source: ChEMBL document CHEMBL4190400, “Identification of Potent Ebola Virus Entry Inhibitors with Suitable Properties for in Vivo Studies” (J Med Chem, 2018)
In brackets after ≈: the same amount, converted by molar mass.

Tests used:
[1] = system: Ebolavirus; experiment: Antiviral activity against Ebolavirus isolate Makona infected in human HeLa cells assessed as inhibition of viral infection pretreated for 2 hrs before viral infection and measured after 48 hrs by EboV GP immunostaining based method; type: functional, cell-based; settings: Orthoebolavirus
[2] = system: Ebolavirus; experiment: Antiviral activity against recombinant VSV pseudotyped Ebolavirus expressing M-GFP infected in African green monkey Vero E6 cells assessed as inhibition of viral infection pre-incubated for 2 hrs before infection and measured after 8 to 12 hrs in presence of 50% NHS by fluorescence microscopic method; type: functional, Vero C1008; settings: Orthoebolavirus, Vero C1008
[3] = Half life in mouse liver microsomes at 1 uM after 60 mins in presence of NADPH by LC-MS/MS analysis; type: ADME, microsome
[4] = Half life in human liver microsomes at 1 uM after 60 mins in presence of NADPH by LC-MS/MS analysis; type: ADME, microsome
[5] = physchem; settings: phosphate buffered saline, pH 7.4
[6] = system: Ebolavirus; experiment: Antiviral activity against VSV pseudotyped Ebolavirus expressing M-GFP infected in African green monkey Vero E6 cells assessed as inhibition of viral infection pre-incubated for 2 hrs before infection and measured after 8 to 12 hrs by fluorescence microscopic method; type: functional, Vero C1008
[7] = in vitro; settings: mouse, plasma
[8] = Stability of the compound in mouse plasma at 10 uM assessed as compound remaining after 4 hrs by LC-MS/MS analysis; type: ADME, cell-free; settings: read-out: Stability
[9] = Half life in mouse liver microsomes at 1 uM after 60 mins in presence of NADPH and ritonavir by LC-MS/MS analysis; type: ADME, microsome; settings: with ritonavir (concentration not stated)
[10] = Clearance in mouse at 50 mg/kg, po administered via gavage cotreated with 50 mg/kg ritonavir; type: ADME, organism-based; settings: in vivo
[11] = Tmax in mouse at 50 mg/kg, po administered via gavage cotreated with 50 mg/kg ritonavir; type: ADME, organism-based; settings: in vivo
[12] = Concentration in mouse plasma at 50 mg/kg, po administered via gavage cotreated with 50 mg/kg ritonavir; type: ADME, organism-based; settings: in vivo
[13] = AUClast in mouse at 50 mg/kg, po administered via gavage cotreated with 50 mg/kg ritonavir; type: ADME, organism-based; parameters: dose 50 mg/kg, route oral, time 0 - last; settings: in vivo
[14] = Cmax in mouse at 50 mg/kg, po administered via gavage cotreated with 50 mg/kg ritonavir; type: ADME, organism-based; parameters: dose 50 mg/kg, route oral; settings: in vivo
[15] = Half life in mouse at 50 mg/kg, po administered via gavage cotreated with 50 mg/kg ritonavir; type: ADME, organism-based; settings: in vivo

| SMILES | IC50 ([6]; Orthoebolavirus, Vero C1008) [nM] | also measured |
| --- | --- | --- |
| COC(=O)c1ccc(COc2ccccc2CN2CCN(C(=O)CNC(=O)CC34CC5CC(CC(C5)C3)C4)CC2)cc1 | 13 | EC50 [1]: 160 nM; IC50 [2]: 64 nM; half-life at 1 µM [3]: 1 min; half-life at 1 µM [4]: 1.2 min; solubility kinetic [5]: 5.3 µM (≈ 3.04 µg/mL) |
| O=C(CC12CC3CC(CC(C3)C1)C2)NCC(=O)N1CCN(Cc2cc(Br)ccc2O)CC1 | 500 |  |
| Nc1ccc(Br)cc1CN1CCN(C(=O)CNC(=O)CC2CCC(F)(F)CC2)CC1 | 1740 |  |
| CNS(=O)(=O)c1ccc(COc2ccccc2CN2CCN(C(=O)CNC(=O)CC34CC5CC(CC(C5)C3)C4)CC2)cc1 | 300 |  |
| O=C(CC12CC3CC(CC(O)(C3)C1)C2)NCC(=O)N1CCN(Cc2ccccc2OCc2ccc(Br)cc2)CC1 | 500 |  |
| COC(=O)c1ccc(Oc2cc(Cl)cc(CN3CCN(C(=O)CNC(=O)CC45CC6CC(CC(C6)C4)C5)CC3)c2)cc1 | 16 |  |
| O=C(CC12CC3(F)CC(F)(CC(F)(C3)C1)C2)NCC(=O)N1CCN(Cc2ccccc2OCc2ccc(Br)cc2)CC1 | 200 | half-life at 1 µM [3]: 1 min |
| O=C(CC12CC3CC(CC(C3)C1)C2)NCC(=O)N1CCN(Cc2cc(Cl)cc(F)c2F)CC1 | 670 |  |
| COC(=O)c1ccc(/C=C/c2ccccc2CN2CCN(C(=O)CNC(=O)CC34CC5CC(CC(C5)C3)C4)CC2)cc1 | 1500 |  |
| O=C(CC12CC3CC(CC(C3)C1)C2)NCC(=O)N1CCN(Cc2cc(Cl)c(F)cc2F)CC1 | 370 |  |
| COC(=O)c1ccc(COc2ccccc2CN2CCN(C(=O)CNC(=O)CC3CCC(F)(F)CC3)CC2)cc1 | 50 |  |
| COC(=O)c1ccc(COc2ccccc2CN2CCN(C(=O)CNC(=O)CC3CC(F)(F)C3)CC2)cc1 | 300 |  |
| O=C(CC1CCC(F)(F)CC1)NCC(=O)N1CCN(Cc2cc(Br)ccc2O)CC1 | 790 |  |
| COC(=O)c1ccc(COc2ccc(Cl)cc2CN2CCN(C(=O)CNC(=O)CC34CC5CC(CC(C5)C3)C4)CC2)cc1 | 1.1 |  |
| CC1(CC(=O)NCC(=O)N2CCN(Cc3ccccc3OCc3ccc(Br)cc3)CC2)CCCCC1 | 520 |  |
| NC(=O)c1ccc(Cl)cc1CN1CCN(C(=O)CNC(=O)CC23CC4CC(CC(C4)C2)C3)CC1 | 1900 |  |
| O=C(CC12CC3CC(CC(C3)C1)C2)NCC(=O)N1CCN(Cc2cc(Cl)ccc2C(F)(F)F)CC1 | > 2000 |  |
| NS(=O)(=O)c1ccc(COc2ccccc2CN2CCN(C(=O)CNC(=O)CC34CC5CC(CC(C5)C3)C4)CC2)cc1 | 350 |  |
| O=C(CC1CCC(F)(F)CC1)NCC(=O)N1CCN(Cc2cc(Cl)ccc2NC(=O)C2CC2)CC1 | 3500 |  |
| O=C(CC12CC3CC(C1)CC(c1ccc(O)c([N+](=O)[O-])c1)(C3)C2)NCC(=O)N1CCN(Cc2ccccc2OCc2ccc(Br)cc2)CC1 | 600 |  |
| COC(=O)c1ccc(COc2ccc(OC)cc2CN2CCN(C(=O)CNC(=O)CC34CC5CC(CC(C5)C3)C4)CC2)cc1 | 1400 |  |
| Nc1ccc(Cl)cc1CN1CCN(C(=O)CNC(=O)CC23CC4CC(CC(C4)C2)C3)CC1 | 90 |  |

| SMILES | IC50 ([6]; Orthoebolavirus, Vero C1008) [nM] | also measured |
| --- | --- | --- |
| COC(=O)c1cccc(-c2ccc(Cl)cc2CN2CCN(C(=O)CNC(=O)CC34CC5CC(CC(C5)C3)C4)CC2)c1 | 250 |  |
| O=C(CC12CC3CC(CC(C3)C1)C2)NCC(=O)N1CCN(Cc2cc(F)c(F)cc2Cl)CC1 | 1450 |  |
| COC(=O)c1ccc(COc2ccc(Cl)cc2CN2CCN(C(=O)CNC(=O)CC3CCC(F)(F)CC3)CC2)cc1 | 15 |  |
| O=C(CC12CC3CC(CC(C3)C1)C2)NCC(=O)N1CCN(Cc2cc(Br)ccc2F)CC1 | 1200 |  |
| COC(=O)c1ccc(COc2ccc(F)cc2CN2CCN(C(=O)CNC(=O)CC3CCC(F)(F)CC3)CC2)cc1 | 18 |  |
| O=C(CC1CCC(F)(F)CC1)NCC(=O)N1CCN(Cc2cc(Cl)cc(F)c2O)CC1 | 2800 |  |
| O=C(CC12CC3CC(CC(C3)C1)C2)NCC(=O)N1CCN(Cc2ccccc2OCc2ccc(Br)cc2)CC1 | 220 |  |
| O=C(CC12CC3CC(CC(C3)C1)C2)NCC(=O)N1CCN(Cc2ccccc2OCc2ccc(-c3ncco3)cc2)CC1 | 270 | fraction unbound at 6 h [7]: 0.003; remaining at 4 h, 10 µM [8]: 37%; half-life at 1 µM [3]: 1 min; solubility kinetic [5]: 5 µM (≈ 2.91 µg/mL) |
| O=C(CC12CC3CC(CC(C3)C1)C2)NCC(=O)N1CCN(Cc2cc(Cl)ccc2O)CC1 | 200 |  |
| O=C(CC1CCC(F)(F)CC1)NCC(=O)N1CCN(Cc2cc(Cl)cc(Cl)c2O)CC1 | 3600 |  |
| Nc1ccc(Cl)cc1CN1CCN(C(=O)CNC(=O)CC2CCC(F)(F)CC2)CC1 | 340 | fraction unbound at 6 h [7]: 0.131; remaining at 4 h, 10 µM [8]: 94%; solubility kinetic [5]: > 100 µM |
| NC(=O)c1ccc(COc2ccccc2CN2CCN(C(=O)CNC(=O)CC34CC5CC(CC(C5)C3)C4)CC2)cc1 | 700 |  |
| COC(=O)c1ccc(COc2ccccc2CN2CCN(C(=O)CNC(=O)CC34CC5CC(C3)CC(C(=O)O)(C5)C4)CC2)cc1 | > 2000 |  |
| O=C(CC12CC3CC(CC(Br)(C3)C1)C2)NCC(=O)N1CCN(Cc2ccccc2OCc2ccc(Br)cc2)CC1 | 600 |  |
| CN(C)S(=O)(=O)c1ccc(COc2ccccc2CN2CCN(C(=O)CNC(=O)CC34CC5CC(CC(C5)C3)C4)CC2)cc1 | 400 |  |
| CC(=O)Nc1ccc(Cl)cc1CN1CCN(C(=O)CNC(=O)CC23CC4CC(CC(C4)C2)C3)CC1 | 950 |  |
| N#Cc1ccc(Br)cc1CN1CCN(C(=O)CNC(=O)CC23CC4CC(CC(C4)C2)C3)CC1 | 310 |  |
| O=C(CC12CC3CC(CC(C3)C1)C2)NCC(=O)N1CCN(Cc2cc(Cl)ccc2F)CC1 | 360 |  |
| COC(=O)c1ccc(COc2ccc(Br)cc2CN2CCN(C(=O)CNC(=O)CC34CC5CC(CC(C5)C3)C4)CC2)cc1 | 9 |  |
| CS(=O)(=O)c1ccc(COc2ccc(Cl)cc2CN2CCN(C(=O)CNC(=O)CC3CCC(F)(F)CC3)CC2)cc1 |  | remaining at 4 h, 10 µM [8]: 30%; half-life at 1 µM [9]: > 120 min; IC50 [2]: 38 nM |
| COC(=O)c1ccc(COc2ccc(C#N)cc2CN2CCN(C(=O)CNC(=O)CC34CC5CC(CC(C5)C3)C4)CC2)cc1 | 50 |  |
| O=C(CC12CC3CC(CC(C3)C1)C2)NCC(=O)N1CCN(Cc2cc(Br)ccc2Cl)CC1 | 2200 |  |

| SMILES | IC50 ([6]; Orthoebolavirus, Vero C1008) [nM] | also measured |
| --- | --- | --- |
| O=C(CC1CCC(F)(F)CC1)NCC(=O)N1CCN(Cc2cc(Cl)ccc2O)CC1 | 470 |  |
| O=C(CC1CCC(F)(F)CC1)NCC(=O)N1CCN(Cc2cc(Cl)ccc2NS(=O)(=O)C2CC2)CC1 | 2200 |  |
| O=C(CC12CC3CC(C1)CC(c1ccccc1)(C3)C2)NCC(=O)N1CCN(Cc2ccccc2OCc2ccc(Br)cc2)CC1 | 700 |  |
| O=C(CC12CC3CC(CC(C3)C1)C2)NCC(=O)N1CCN(Cc2cc(Cl)cc(Cl)c2Cl)CC1 | 430 |  |
| COC(=O)c1ccc(CCc2ccccc2CN2CCN(C(=O)CNC(=O)CC34CC5CC(CC(C5)C3)C4)CC2)cc1 | 20 |  |
| O=C(CC12CC3CC(CC(Cl)(C3)C1)C2)NCC(=O)N1CCN(Cc2ccccc2OCc2ccc(Br)cc2)CC1 | 500 |  |
| O=C(CC12CC3CC(CC(C3)C1)C2)NCC(=O)N1CCN(Cc2c(F)ccc(Cl)c2F)CC1 | 1350 |  |
| COC(=O)c1ccc(COc2ccccc2CN2CCN(C(=O)CNC(=O)CC3(C)CCCCC3)CC2)cc1 | 80 |  |
| COC(=O)c1ccc(COc2ccc(F)cc2CN2CCN(C(=O)CNC(=O)CC34CC5CC(CC(C5)C3)C4)CC2)cc1 | 1.4 |  |
| COC(=O)c1ccc(COc2ccc(C)cc2CN2CCN(C(=O)CNC(=O)CC34CC5CC(CC(C5)C3)C4)CC2)cc1 | 12 |  |
| COC(=O)c1ccc(COc2ccc(Cl)cc2CN2CCN(C(=O)CNC(=O)C(F)(F)C(F)F)CC2)cc1 | 160 |  |
| CCC1(CC)CC1C(=O)NCC(=O)N1CCN(Cc2cc(Cl)ccc2N)CC1 (racemic) | 160 |  |
| O=C(NCC(=O)N1CCN(Cc2cc(Cl)ccc2O)CC1)C1CC12CCC(F)(F)CC2 (racemic) | 180 |  |
| [2H]C([2H])(c1cc(Cl)ccc1N)N1CCN(C(=O)CNC(=O)C2CC23CCC(F)(F)CC3)CC1 (racemic) |  | IC50 ([6]; vero c1008): 94 nM |
| Nc1ccc(Cl)cc1CN1CCN(C(=O)CNC(=O)C2CC23CCC3)CC1 (racemic) | 2500 |  |
| Nc1ccc(Cl)cc1CN1CCN(C(=O)CNC(=O)C2CC23CCC(F)(F)CC3)CC1 (racemic) | 100 |  |
| Nc1ccc(Cl)cc1CN1CCN(C(=O)CNC(=O)C2CC23CCCC3)CC1 (racemic) | 240 |  |
| Nc1ccc(C2CC2)cc1CN1CCN(C(=O)CNC(=O)C2CC23CCC(F)(F)CC3)CC1 (racemic) | 4200 |  |
| Nc1ccc(Cl)cc1C(=O)N1CCN(C(=O)CNC(=O)C2CC23CCC(F)(F)CC3)CC1 (racemic) | > 5000 |  |
| [2H]C([2H])(c1cc(Cl)ccc1N)N1CCN(C(=O)CNC(=O)C2CC23CCC(F)(F)CC3)CC1 (single isomer, unassigned; (-)) |  | fraction unbound at 6 h [7]: 0.121; remaining at 4 h, 10 µM [8]: 88%; CL/F [10]: 15.5 mL/min/kg; Tmax [11]: 102 min; half-life at 1 µM [9]: 91 min; IC50 [2]: 163 nM; concentration [12]: 2 µM; AUC(0-t) [13]: 121 µM·h; half-life at 1 µM [3]: 3 min; Cmax [14]: 19.5 µM; half-life at 1 µM [4]: 16 min; solubility kinetic [5]: 78 µM (≈ 35.6 µg/mL); half-life [15]: 192 min; IC50 ([6]; vero c1008): 51 nM |
| [2H]C([2H])(c1cc(Cl)ccc1N)N1CCN(C(=O)CNC(=O)C2CC23CCC(F)(F)CC3)CC1 (stereo in doubt; 3-19) |  | IC50 ([6]; vero c1008): 180 nM |
